# Assay results from patent publication US5709816A, “Singlet oxygen quenchers and external compositions containing the same” (Kao Corporation, priority 1899, dated 1998).
# Assays:
# [1] = test system: dopachrome formation from dopa; assay: Inhibition of immediate pigment darkening (dopachrome formation from dopa, porphyrin + UV); assay type: biochemical; conditions: 0.5 wt. % in ethanol; dopa 1 mM, porphyrin 5 mM; UV-A/UV-B 3 J/cm^2; absorption at 475 nm
# Procedure: Inhibition of immediate pigment darkening
# An ethanol solution containing a test substance (0.5 wt. %) was added to a mixture of dopa (1 mM) and porphyrin (5 mM). A mixture of UV-A/UV-B (3 J/cm^2, measured at 365 nm) was irradiated onto the resultant mixture using a solar simulator. The amount of dopachrome formed by irradiation was determined by measuring absorption at 475 nm.
# [2] = Quenching rate constant of singlet oxygen (Rose Bengal photosensitization, Stern-Volmer method); assay type: biochemical; conditions: kq; ethanol solution, 50 μM Rose Bengal; singlet oxygen lifetime taken as 10 μs
# Description: Method for measuring the quenching rate constant of singlet oxygen:
# The apparatus used for measuring singlet oxygen included the following parts.
# (1) Light source: Xenon lamp (150 W) (Atago Bussan K.K.)
# (2) Filters on the excitation side: Water filter (optical path: 50 mm), Color glass filters (HA-15, HA-30, G-533, manufactured by Hoya K.K.)
# (3) Sample: Square quartz cell (2×10×50 mm)
# (4) Filters on the detection side: Color glass filter (IR-85, manufactured by Hoya K.K.), Interference filter (Nippon Shinku-Kogaku K.K.)
# (5) Spectrometer and detector: Spectrometer (HR-320, Jovin Yvon Co.), Germanium (Ge) detector (EO-817L, a type using liquid nitrogen as a coolant, North coast Scientic Corporation)
# (6) Amplifier: Light chopper (5584, NF Co.), Frequency filter (E-3201B, NF Co.), Super low noise amplifier (SA-200F3, NF Co.), Digital storage oscilloscope (2431L, SONY Tektronix Co.)
# (7) Recording section: Personal computer (PC-9801 BA, NEC Corporation), GP-IB interface
# (8) Oxygen concentration control unit: High-pressure oxygen cylinder
# Using this apparatus, light was irradiated onto a system which is known to produce singlet oxygen through photochemical sensitization. The wavelength of the light was within an appropriate absorption range of the photosensitizer employed. weak emission in the near infrared region, which is specific to singlet oxygen, was measured for its intensity I. Subsequently, the emission obtained when a test substance was added to the same system was measured. From the decrease in emission intensity I, the quenching rate constant of singlet oxygen of the test substance could be measured in accordance with the Stern-Volmer method. However, since some substances react with the photochemical sensitization system to cause errors in the measurements, the method described by R. H. Young et al., Photochem. Photobiol., vol. 17, p. 233 (1973) was applied to correct this contribution quenching.
# A 50 μM ethanol solution of Rose Bengal in a 400 μl square quartz cell was used as a test substance.
# First, the light within 490-590 nm, which is appropriate for the maximum absorption wavelength of Rose Bengal, was irradiated onto the cell containing the test substance.
# Similarly, another system was subjected to measurement in which a typical singlet oxygen quencher, β-carotene, sodium azide,or 1,4-diazabicyclo[2.2.2]octane, had been added.
# Measurement of the quenching rate constant of singlet oxygen: An ethanol solution of each of compounds obtained in the above-described Synthesis Examples and N-phenyldiethanolamine (compound (36)), with Rose Bengal, as a conventional photosensitizer, was used for the measurement of the quenching rate constants of singlet oxygen.
# First, emission intensity I of a mixture solution containing 50 μM of Rose Bengal and the above compounds were measured under saturated air conditions. The ratio IOair /Iair was calculated, wherein Iair represents the emission intensity measured for a solution with a test substance at a concentration of Cq (Iair), and Oair represents the emission intensity measured for a solution without test substance. Next, under saturated oxygen conditions, emission intensity was measured for a solution with a test substance at the same concentration Cq (I302). Using these emission intensities, the correction term Fair was obtained in accordance with the following equation.
# Interference attributed to the test substance with respect to the photosensitization reaction system was corrected by multiplying IOair /Iair by Fair.
# Using the following equation:
# (IOair /Iair)'=1+kq ·.tau.·Cq
Compound,Inhibition ratio regarding immediate blackening [1],Extinction rate constant of singlet oxygen [2]
"COCC(O)CN(C)c1ccc(OC)cc1 (centres unmarked) [Compound (1), N-(2-hydroxy-3-methoxypropyl)-N-methyl-p-anisidine]",71%,2.2e+08 M⁻¹ s⁻¹
"CCCCN(CC(O)COC)c1ccc(OC)cc1 (centres unmarked) [Compound (2), N-n-butyl-N-(2-hydroxy-3-methoxypropyl)-p-anisidine]",57%,2e+08 M⁻¹ s⁻¹
"CCCCCCCCN(CC(O)COC)c1ccc(OC)cc1 (centres unmarked) [Compound (3), N-(2-hydroxy-3-methoxypropyl)-N-n-octyl-p-anisidine]",83%,2.3e+08 M⁻¹ s⁻¹
"COCC(O)CN(CC(O)COC)c1ccc(C)cc1 (centres unmarked) [Compound (4), N,N-bis(2-hydroxy-3-methoxypropyl)-p-toluidine]",76%,2.1e+08 M⁻¹ s⁻¹
"CCCCN(CC(O)COC)c1ccc(C)cc1 (centres unmarked) [Compound (5), N-n-butyl-N-(2-hydroxy-3-methoxypropyl)-p-toluidine]",65%,1.5e+08 M⁻¹ s⁻¹
"CCCCN(CC(O)COC)c1ccccc1 (centres unmarked) [Compound (6), N-n-butyl-N-(2-hydroxy-3-methoxypropyl)aniline]",53%,1.1e+08 M⁻¹ s⁻¹
"CCCCN(CC(O)COC)c1ccc(C)c(C)c1 (centres unmarked) [Compound (32), N-n-butyl-N-(2-hydroxy-3-methoxypropyl)-3,4-xylidine]",56%,1.6e+08 M⁻¹ s⁻¹
"Cc1ccc(N(C)CC(O)CO)cc1 (centres unmarked) [Compound (33), N-(2,3-dihydroxypropyl)-N-methyl-p-toluidine]",67%,1.4e+08 M⁻¹ s⁻¹
"CCCCN(CC(O)CO)c1ccc(C)c(C)c1 (centres unmarked) [Compound (34), N-n-butyl-N-(2,3-dihydroxypropyl)-3,4-xylidine]",63%,1.7e+08 M⁻¹ s⁻¹
"CCCCCCCCN(CC(O)CO)c1ccc(OC)cc1 (centres unmarked) [Compound (35), N-(2,3-dihydroxypropyl)-N-octyl-p-anisidine]",78%,2.2e+08 M⁻¹ s⁻¹
